Laboratory results reported in patent publication US9604947B2, “Substituted 5-imino-1,2,4-thiadiazoles that can be used to treat neurodegenerative diseases” (CONSEJO SUPERIOR DE INVESTIGACIONES CIENTIFICAS (CSIC), priority 2009, dated 2017).
Where a name gives a salt, the structure may show the parent alone. Read-outs that look alike come from different tables or passages of the source.

Experiments:
[1] = PAMPA-BBB parallel artificial membrane permeability assay (porcine polar brain lipid)
Experimental: Ten commercial reference drugs, phosphate buffer saline solution at pH 7.4 (PBS), DMSO and dodecane were purchased from Sigma, Acros organics, Aldrich and Fluka. […] Filter PDVF membrane units (diameter 30 mm, pore size 0.45 μm) from Symta were used to filtered the samples. A 96-well plate UV reader (Thermoscientific, Multiskan spectrum) was used for the UV measurements. […] These solutions were filtered. The acceptor 96-well microplate was filled with 180 μL of PBS:DMSO (95:5). The donor 96-well plate was coated with 4 μL of porcine brain lipid in dodecane (20 mg mL^−1) and after 5 minutes, 180 μL of each compound solution was added. 1-2 mg of every compound to be determined their ability to pass the BBB were dissolved in 250 μL of DMSO and 4750 μL of PBS pH 7.4 buffer, filtered and then added to the donor 96-well plate. Then the donor plate was carefully put on the acceptor plate to form a “sandwich”, which was left undisturbed for 4 h at 25° C.
During this time the compounds diffused from the donor plate through the brain lipid membrane into the acceptor plate. After incubation, the donor plate was removed. The concentration of compounds and commercial drugs in the acceptor and the donor wells was determined by UV plate reader. Every sample was analyzed from three to five wavelengths, in 3 wells and in at least three independent runs. […] 11 quality control compounds (previously mentioned) of known BBB permeability were included in each experiment to validate the analysis set.

PDE7A1 = biological target: T1, PDE7A1 (Homo sapiens, UniProt Q13946); test: Determination of PDE7 inhibition (SPA, [3H]cAMP); type: biochemical; conditions: for IC50: read-out: IC50 (PDE7A); for inhibition at 10 µM: read-out: % inhibition of PDE7A at 10 μM, hydrobromides
T1 construct: purchased Calbiochem 524751
T1 sequence (Q13946 whole entry): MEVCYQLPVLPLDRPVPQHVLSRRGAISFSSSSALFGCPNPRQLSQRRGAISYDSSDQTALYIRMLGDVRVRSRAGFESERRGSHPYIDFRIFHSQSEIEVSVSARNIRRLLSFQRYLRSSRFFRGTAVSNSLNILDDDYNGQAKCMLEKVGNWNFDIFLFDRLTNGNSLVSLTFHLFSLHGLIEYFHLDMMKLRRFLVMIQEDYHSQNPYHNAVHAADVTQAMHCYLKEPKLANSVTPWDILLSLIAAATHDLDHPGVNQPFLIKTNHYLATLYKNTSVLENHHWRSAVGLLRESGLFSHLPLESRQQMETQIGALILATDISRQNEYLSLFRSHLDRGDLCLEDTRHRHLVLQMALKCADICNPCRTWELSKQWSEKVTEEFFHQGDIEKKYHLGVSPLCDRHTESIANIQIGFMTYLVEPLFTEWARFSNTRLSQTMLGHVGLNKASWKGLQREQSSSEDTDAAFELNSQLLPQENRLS
Experimental: PDE-7 inhibition was performed with a commercial kit for the determination of phosphodiesterase activity (GE Healthcare Life Sciences, cat#TRKQ7090).
The compounds to be evaluated were incubated (in concentrations between 0.1 nM and 100 μM) in presence of 0.02 U/well of PDE7A1 (Calbiochem cat#524751) and 0.05 μCi of [^3H] cAMP, for 20 min at 30° C. in the assay buffer of kit (total volume=100 μl).
After this time, 50 μl of a suspension of 20 mg/ml microspheres of SPA of Ytrium silicate were added and was maintained under stirring at room temperature for 60 min. Finally, the plate was settled for 20 min and radioactivity was detected in a Microbeta Trilux reader.
In every assay there were included two points without PDE7A1 (blank) and two points with PDE7A1 without inhibitors (control).
Data Analysis: All the compounds were evaluated firstly at the concentration of 10 μM and the percentage of PDE7A1 inhibition was calculated, according to the following formula (cpm=counts per minute): % Inhibition=((cpm control−cpm sample)×100)/(cpm control−cpm blank assay).
For those compounds with % inhibition values above 45% it was calculated its inhibitory potency (IC50) building the dose-response curve.
The data were adjusted with the software Prism v 2.1 (GraphPad Software) using the non lineal fitting.

[2] = 1,2,4-thiadiazoles-5-imino substituted as hydrobromides
[3] = 1,2,4-thiadiazoles-5-imino substituted as hydrochlorides

| SMILES | IC50 (PDE7A1; [2]) | Prediction (predictive penetration in the CNS) ([1]; PAMPA) | Papp at 4 h ([1]; PAMPA, pH 7.4) | further results |
| --- | --- | --- | --- | --- |
| CN1C(C(=O)Nc2ccccn2)=C(O)c2ccccc2S1(=O)=O [Piroxicam, reference compound] |  |  |  | Pe (10^−6 cm s^−1) ([1]; PBS:DMSO (95:5) as solvent, 4 h at 25° C., mean ± SD of at least 3 independent experiments): 2.2 ± 0.9 10^−6 cm s^−1 |
| CC(C)NCC(O)COc1ccc(CC(N)=O)cc1 (stereo not drawn) [Atenolol, reference compound] |  |  |  | Pe (10^−6 cm s^−1) ([1]; pig, PAMPA, 4 h, pH 7.4): 0.8 ± 1.1 10^−6 cm s^−1 |
| CCCCCN=c1nc(-c2ccc(OC)cc2)n(-c2ccccc2)s1 [3-(4-Methoxyphenyl)-5-pentylimino-2-phenyl-2,5-dihydro-1,2,4-thiadiazole hydrobromide] | 810 nM |  |  |  |
| Br.CCOC(=O)CN=c1nc(-c2ccccc2)n(-c2ccc(OC)cc2)s1 [VP-1.62, 5-Ethoxycarbonylmethylimino-2-(4-methoxyphenyl)-3-phenyl-2,5-dihydro-1,2,4-thiadiazole hydrobromide] | 780 nM | CNS+/CNS− | 4 ± 0.8 ×10⁻⁶ cm/s |  |
| CCCCCN=c1nc(-c2ccccc2)n(-c2ccccc2)s1 [R1=Ph, R2=Ph, R3=n-Pent (hydrobromide), 5-Pentylimino-2,3-diphenyl-2,5-dihydro-1,2,4-thiadiazole hydrobromide] | 1440 nM |  |  |  |
| CCCCCN=c1nc(-c2ccc(OC)cc2)n(-c2ccccc2)s1 [3-(4-Methoxyphenyl)-5-pentylimino-2-phenyl-2,5-dihydro-1,2,4-thiadiazole hydrochloride] |  |  |  | IC50 (PDE7A1; [3]): 3700 nM |
| Br.COc1ccc(-n2sc(=NCCO)nc2-c2ccccc2)cc1 [VP-1.61, 5-(2-Hydroxyethylimino)-2-(4-methoxyphenyl)-3-phenyl-2,5-dihydro-1,2,4-thiadiazole hydrobromide] | 1180 nM | CNS+ | 13.7 ± 1 ×10⁻⁶ cm/s |  |
| Br.Br.COc1ccc(-c2nc(=NCc3cccnc3)sn2-c2ccccc2)cc1 [VP-1.43, 3-(4-Methoxyphenyl)-2-phenyl-5-(3-pyridylmethylimino)-2,5-dihydro-1,2,4-thiadiazole dihydrobromide] | 860 nM | CNS+ | 4.4 ± 0.6 ×10⁻⁶ cm/s |  |
| FC(F)(F)c1ccc(-c2nc(=NCc3cccnc3)sn2-c2ccccc2)cc1 [3-(4-Trifluoromethylphenyl)-2-phenyl-5-(3-pyridylmethylimino)-2,5-dihydro-1,2,4-thiadiazole dihydrobromide] |  |  |  | inhibition at 10 µM (PDE7A1; at 10 μM): 87% |
| CCOC(=O)CN=c1nc(-c2ccccc2)n(-c2ccccc2)s1 [R1=Ph, R2=Ph, R3=CH2CO2Et (free base), 5-Ethoxycarboximethylimino-2,3-diphenyl-2,5-dihydro-1,2,4-thiadiazole] |  |  |  | % inhibition of PDE7A at 10 μM (PDE7A1; free bases, at 10 μM): 6%@10 |
| CN(C)CCCN1c2ccccc2Sc2ccccc21 [Promazine, reference compound] |  |  | 9.7 ± 1.5 ×10⁻⁶ cm/s |  |
| Br.Br.c1ccc(-c2nc(=NCc3cccnc3)sn2-c2ccccc2)cc1 [VP-1.14, 2,3-Diphenyl-5-(3-pyridinylmethylimino)-2,5-dihydro-1,2,4-thiadiazole dihydrobromide] | 380 nM | CNS+ | 10.7 ± 0.3 ×10⁻⁶ cm/s |  |
| c1ccc(N=c2nc(-c3ccccc3)n(-c3ccccc3)s2)cc1 [R1=Ph, R2=Ph, R3=Ph (free base), 2,3-Diphenyl-5-phenylimino-2,5-dihydro-1,2,4-thiadiazole] |  |  |  | IC50 (PDE7A1; 1,2,4-thiadiazoles-5-imino substituted as free bases): 3520 nM |
| c1ccc(-c2nc(=NC3CCCCC3)sn2-c2ccccc2)cc1 [R1=Ph, R2=Ph, R3=Cy (hydrobromide)] | 1640 nM |  |  |  |
| Br.Br.COc1ccc(-n2sc(=NCc3cccnc3)nc2-c2ccccc2)cc1 [VP-1.60, 2-(4-Methoxyphenyl)-3-phenyl-5-(3-pyridinylmethylimino)-2,5-dihydro-1,2,4-thiadiazole dihydrobromide] | 850 nM | CNS+ | 6.2 ± 0.4 ×10⁻⁶ cm/s |  |
| c1ccc(-n2sc(=NCc3cccnc3)nc2-c2cccc3ccccc23)cc1 [3-(1-Naphthyl)-2-phenyl-5-(3-pyridylmethylimino)-2,5-dihydro-1,2,4-thiadiazole hydrochloride] |  |  |  | IC50 (PDE7A1; [3]): 1500 nM |

| SMILES | IC50 (PDE7A1; [2]) | Prediction (predictive penetration in the CNS) ([1]; PAMPA) | Papp at 4 h ([1]; PAMPA, pH 7.4) | further results |
| --- | --- | --- | --- | --- |
| OCCN=c1nc(-c2ccccc2)n(-c2cccc3ccccc23)s1 [5-(2-Hydroxyethylimino)-2-(1-naphthyl)-3-phenyl-2,5-dihydro-1,2,4-thiadiazole hydrobromide] | 2200 nM |  |  |  |
| c1ccc(-c2nc(=NCc3cccnc3)sn2-c2cccc3ccccc23)cc1 [2-(1-Naphthyl)-3-phenyl-5-(3-pyridylmethylimino)-2,5-dihydro-1,2,4-thiadiazole dihydrobromide] | 870 nM |  |  |  |
| Br.COc1ccc(-c2nc(=NCCO)sn2-c2ccccc2)cc1 [VP-1.40, 5-(2-Hydroxyethylimino)-3-(4-methoxyphenyl)-2-phenyl-2,5-dihydro-1,2,4-thiadiazole hydrobromide] | 1500 nM | CNS+ | 13.7 ± 0.8 ×10⁻⁶ cm/s |  |
| N=c1nc(-c2ccccc2)n(-c2ccccc2)s1 [R1=Ph, R2=Ph, R3=H (hydrobromide)] | 1020 nM |  |  |  |
| c1ccc(-n2sc(=NCc3cccnc3)nc2-c2cccc3ccccc23)cc1 [3-(1-Naphthyl)-2-phenyl-5-(3-pyridylmethylimino)-2,5-dihydro-1,2,4-thiadiazole dihydrobromide] | 1080 nM |  |  |  |
| Br.CCOC(=O)CN=c1nc(-c2ccc(OC)cc2)n(-c2ccccc2)s1 [VP-1.65, 5-Ethoxycarbonylmethylimino-3-(4-methoxyphenyl)-2-phenyl-2,5-dihydro-1,2,4-thiadiazole hydrobromide] | 890 nM | CNS+/CNS− | 3.8 ± 0.2 ×10⁻⁶ cm/s |  |
| c1ccc(N=c2nc(-c3ccccc3)n(-c3ccccc3)s2)cc1 [R1=Ph, R2=Ph, R3=Ph (hydrobromide), 2,3-Diphenyl-5-phenylimino-2,5-dihydro-1,2,4-thiadiazole hydrobromide] | 3030 nM |  |  |  |
| Br.CCOC(=O)CN=c1nc(-c2ccccc2)n(-c2ccccc2)s1 [VP-1.16, 5-Ethoxycarbonylmethylimino-2,3-diphenyl-2,5-dihydro-1,2,4-thiadiazole hydrobromide] | 1130 nM | CNS+ | 6.2 ± 0.4 ×10⁻⁶ cm/s |  |
| Br.Br.Cc1nc(=NCc2cccnc2)sn1-c1ccccc1 [VP-2.63, 3-Methyl-2-phenyl-5-(3-pyridylmethylimino)-2,5-dihydro-1,2,4-thiadiazole dihydrobromide] |  | CNS+ | 5.3 ± 0.9 ×10⁻⁶ cm/s | inhibition at 10 µM (PDE7A1; at 10 μM): 54% |
| Br.OCCN=c1nc(-c2cccc3ccccc23)n(-c2ccccc2)s1 [VP-2.33, 5-(2-Hydroxyethylimino)-3-(1-naphthyl)-2-phenyl-2,5-dihydro-1,2,4-thiadiazole hydrobromide] | 1240 nM |  | 10.2 ± 0.6 ×10⁻⁶ cm/s | Prediction (predictive penetration in the CNS) ([1]; PAMPA-BBB): CNS+ |
| CCOC(=O)CN=c1nc(-c2ccccc2)n(-c2ccc([N+](=O)[O-])cc2)s1 [5-Ethoxycarbonylmethylimino-2-(4-nitrophenyl)-3-phenyl-2,5-dihydro-1,2,4-thiadiazole hydrobromide] | 790 nM |  |  |  |
| CCn1cc(C(=O)O)c(=O)c2cc(F)c(N3CCNCC3)nc21 [Enoxacin, reference compound] |  |  |  | Pe (10^−6 cm s^−1) ([1]; pig, PAMPA, 4 h, pH 7.4): 0.9 ± 0.5 10^−6 cm s^−1 |
| COc1ccc(-c2nc(=Nc3ccccc3)sn2-c2ccccc2)cc1 [R1=pOMePh, R2=Ph, R3=Ph (hydrobromide)] | 4360 nM |  |  |  |
| O=[N+]([O-])c1ccc(-n2sc(=NCc3cccnc3)nc2-c2ccccc2)cc1 [2-(4-Nitrophenyl)-3-phenyl-5-(3-pyridinylmethylimino)-2,5-dihydro-1,2,4-thiadiazole dihydrobromide] | 840 nM |  |  |  |
| OCCN=c1nc(-c2ccccc2)n(-c2ccccc2)s1 [VP-2.3, 5-(2-Hydroxyethylimino)-2,3-diphenyl-2,5-dihidro-1,2,4-thiadiazole hydrochloride] |  | CNS+ | 15 ± 2 ×10⁻⁶ cm/s | IC50 (PDE7A1; [3]): 1970 nM |
| c1ccc(-c2nc(=NCCN3CCOCC3)sn2-c2ccccc2)cc1 [5-(2-Morpholinethylimino)-2,3-diphenyl-2,5-dihydro-1,2,4-thiadiazole dihydrobromide] | 1590 nM |  |  |  |
